System: Plasmodium falciparum
Assay: GSK_TCMDC: Inhibition of Plasmodium falciparum 3D7 in whole erythrocytes, using parasite LDH activity as an index of growth.
Type: functional, organism-based
Conditions: Plasmodium falciparum, 3D7

| SMILES | XC50 |
| --- | --- |
| CCOc1ccc2c(N/N=C/c3cccc([N+](=O)[O-])c3)cc(C)nc2c1 | 224 nM |
| COc1cc(Cc2cnc(N)nc2N)cc(OCCCC(=O)O)c1OC | 1180 nM |
| CCC(CC)CN1C(=O)C(c2ccccc2)(c2ccccc2)N=C1N | 970 nM |
| Cc1nn(CC(C)C)c2sc(C(=O)N3CCN(S(=O)(=O)c4ccc(C#N)cc4)CC3)cc12 | 739 nM |
| Cn1nc(-c2ccc(CN[C@@H]3CCc4ccc(O)cc43)cc2)c2cnc(NC3CCCC3)nc21 | 1120 nM |
| COc1ccc2ncc(C)c(CCN3CCC(NCc4ccc5c(n4)NC(=O)CS5)CC3)c2c1 | 546 nM |
| CC1(C)NC(N)=NC(=N)N1OCCCCOc1ccccc1 | 3.2 nM |
| NC(=O)c1cnc2cc(-c3ccncc3)cc(Nc3ccc(NC(=O)C4CCCCC4)cc3)c2c1 | 232 nM |
| OC(CNC1CCCCCC1)c1ccc(Cl)c(Cl)c1 (configuration not stated) | 688 nM |
| NC1=NC(c2ccccc2)N(OCc2ccccc2)C(N)=N1 (configuration not stated) | 43.1 nM |
| COc1ccc(Cl)cc1N1CCN(CCCNC(=O)c2ccc(-c3nc4cc(Cl)c(F)cc4[nH]3)s2)CC1 | 314 nM |
| Cc1cccc(-c2ccc3c(c2)CC(NCc2cccc(-n4ccnc4)c2)C3)c1 (configuration not stated) | 874 nM |
| Cc1ccc(O)cc1Nc1ccnc2ccc(-c3cccc(CNCCN(C)C)c3)cc12 | 612 nM |
| Cc1cccc2nc(-c3ccc(-c4cccc(NC(=O)Nc5ccc(Cl)cc5)c4)s3)[nH]c12 | 517 nM |
| COc1ccc(O)c(-c2sc(N=C(N)N)nc2-c2ccccc2)c1 | 372 nM |
| c1cncc(CCNCc2cccc(-c3csc(-c4nc5ccccc5[nH]4)c3)c2)c1 | 704 nM |
| Cc1ccc(CON2C(=N)N=C(N)NC2(C)C)cc1C | 3.2 nM |
| COc1cccc(NC(=O)[C@H](C(C)C)n2c(=O)[nH]c3ccccc3c2=O)c1 | 266 nM |
| COc1ccc(Cc2c(N)nc3nc(N)nc(N)c3c2C)cc1 | 189 nM |
| COC(=O)C(Cc1ccccc1)C(CSCc1ccc(OC)cc1)C(=O)N[C@@H](C(=O)OC(C)(C)C)c1ccc(C(C)(C)C)cc1 (some centres not stated) | 1030 nM |
| O=C(Nc1ccccc1)N(Cc1cccc(-c2ccc(CNCCc3ccccc3)cc2)c1)C1CCN(Cc2ccccc2)CC1 | 349 nM |
| Cc1ccc2[nH]c(C)cc(=NN=CC=Cc3ccccc3)c2c1 | 840 nM |
| CC1CN(c2ccc(NC(=O)c3ccc(F)cc3)cc2)CCN1Cc1cccc(F)c1 (configuration not stated) | 1350 nM |
| Oc1ccc(CCNc2nc(NCCCOc3ccccc3-c3cccnc3)nc(N3CCNCC3)n2)cc1 | 1040 nM |
| COc1ccc2[nH]c(C)cc(=NN=Cc3ccncc3)c2c1 | 697 nM |

| SMILES | XC50 |
| --- | --- |
| N=C(N)CCN(Cc1ccc(Cl)cc1)c1ccc(Cl)cc1 | 1060 nM |
| COc1ccc(Nc2nccc(-c3cccc(NC(=O)c4cc5cc(F)ccc5[nH]4)c3)n2)cc1 | 1030 nM |
| COc1ccc(-c2ccc(NC(=O)c3ccc(C#N)cc3)cc2)cc1CN(C)CCN(C)C | 663 nM |
| OCC1CCN(Cc2ccc(-c3ccc(-c4nc5cc(C(F)(F)F)ccc5[nH]4)cc3)cc2)CC1 | 697 nM |
| Cc1nc(-c2nc(NCc3ccncc3)ncc2-c2ccsc2)sc1C | 989 nM |
| OCCN1CCN(Cc2ccc(-c3cccc(-c4nc5cc(C(F)(F)F)ccc5[nH]4)c3)cc2)CC1 | 642 nM |
| Cc1ccc(C(=O)NC2CCN(CCNC(=O)Nc3cc(C)nc4ccccc34)CC2)cc1 | 490 nM |
| Cc1sc2ncnc(Sc3nc4ccccc4[nH]3)c2c1C | 255 nM |
| COc1ccc2c(c1C1CCN(CCCCNC(=O)c3ccc(NC(=O)c4ccc(Cl)cc4)cc3)CC1)CCCC2 | 341 nM |
| Cc1cccc2nc(-c3ccc(-c4ccc(CNCc5ccc(CN)cc5)cc4)cc3)[nH]c12 | 721 nM |
| Cc1nc(N)nc(N)c1OCCCOc1ccccc1Br | 4.1 nM |
| COc1c(C2CCN(CCCCNC(=O)C=Cc3cc4cc(Cl)ccc4o3)CC2)ccc2c1CCCC2 | 1310 nM |
| C#CCNC(=O)c1ccc(-c2ccnc(Nc3cccc(CCCN4CCOCC4)c3)n2)s1 | 1000 nM |
| CCCCCCNC(=N)c1ccc(OCCCCCOc2ccc(C(=N)NCCCCCC)cc2)cc1 | 309 nM |
| COc1cccc(-c2cc(C(F)(F)F)n3ncc(C(=O)Nc4cc(C)ccc4O)c3n2)c1 | 159 nM |
| N[C@@H](CCNCc1ccc(-c2cccnc2)cc1)Cc1ccc(F)c(F)c1 | 797 nM |
| O=C(/C=C/c1ccc(Cl)c(Cl)c1)NCCCCCCN1CCCN(C(=O)Nc2ccc(Cl)c(C(F)(F)F)c2)CC1 | 565 nM |
| CCOc1cc(C(=O)NCC2CCN(CC3CCCCC3)CC2)ccc1-c1nc2cc(Cl)ccc2[nH]1 | 563 nM |
| Cc1cc(N[C@@H](CC(C)C)C(=O)NCCOc2ccccc2)nc(NCCOc2ccccc2)n1 | 1490 nM |
| COc1ccc(-c2ccc(NC(=O)c3cccc(C#N)c3)cc2)cc1CN1CCC(O)CC1 | 821 nM |
| CCCCN1C(=N)NC(c2ccccc2)(c2ccccc2)C1=O | 1030 nM |
| CC[C@H](C)CNC(=O)c1cncc(-c2ccc(CNCCCc3ccccc3)cc2)c1 | 735 nM |
| CC(C)COc1ccc(Cl)cc1Cc1nc(-c2nc3ccc(CN4CCN(C)CC4)cc3[nH]2)co1 | 912 nM |
| CC1(C)CC(NC(=O)NC2CCN(Cc3ccccc3)CC2)CC(C)(CNC(=O)NC2CCN(Cc3ccccc3)CC2)C1 (configuration not stated) | 946 nM |
| CCCc1cccc(C)c1OCCCON1C(=N)N=C(N)NC1(C)C | 3.2 nM |

| SMILES | XC50 |
| --- | --- |
| Cc1cc(C)c(C)c(S(=O)(=O)N2CCCCC(c3ccc(F)c(F)c3)=N2)c1C | 706 nM |
| Cc1cc(NCC(C)C)c2[nH]nc(-c3ccccc3)c2n1 | 744 nM |
| O=C(NC1CCN(Cc2ccccc2)CC1)c1cc(C(=O)NC2CCN(Cc3ccccc3)CC2)cc(C(=O)NC2CCN(Cc3ccccc3)CC2)c1 | 1040 nM |
| O=C(NC1CCC(CN2CCC(c3c[nH]c4ccccc34)CC2)CC1)c1ccc(-c2ccccc2[N+](=O)[O-])o1 (configuration not stated) | 772 nM |
| COc1cc(Nc2nccc(N3CCC(NC(=O)Nc4ccc5c(c4)OCO5)C3)n2)cc(OC)c1OC (configuration not stated) | 761 nM |
| CC(C)(C)c1ccc(C(=O)N2CCC3(CC2)C(=O)N(CC(=O)NCC2CCCO2)CN3c2ccccc2)cc1 (configuration not stated) | 231 nM |
| COc1ccc(CCn2c(=N)c(C(=O)NCc3ccccc3)cc3c(=O)n4ccccc4nc32)cc1 | 751 nM |
| COc1ccccc1NC(=O)Nc1cccc(-c2ccc(-c3nc4cc(C(F)(F)F)ccc4[nH]3)cc2)c1 | 306 nM |
| O=C(CN(c1cccc(C(F)(F)F)c1)S(=O)(=O)c1ccc(Cl)cc1)NCCC(c1ccccc1)c1ccccc1 | 743 nM |
| c1cc2[nH]c(CCCCc3nc4cc(C5=N[C@H]6CCCC[C@H]6N5)ccc4[nH]3)nc2cc1C1=N[C@H]2CCCC[C@H]2N1 | 415 nM |
| CCn1c(Sc2ccc(C#N)c([N+](=O)[O-])c2)nnc1-c1ccc(OC)cc1 | 805 nM |
| COc1ccc(NC(=O)[C@H](CC(C)C)Nc2ccnc(Nc3ccccc3)n2)cc1 | 1570 nM |
| COc1ccccc1CN1CCC(NC(=O)c2ccc(-c3cccc(C(F)(F)F)c3)s2)CC1 | 1310 nM |
| Cc1cc(C)c(S(=O)(=O)N2CCCCC(c3cccc(C(F)(F)F)c3)=N2)c(C)c1 | 456 nM |
| Cc1cc(=NN=Cc2cccc(F)c2)c2ccc(F)cc2[nH]1 | 229 nM |
| COc1cc2nc(NCCc3ccccc3)nc(NCc3ccc(C#N)cc3)c2cc1OC | 145 nM |
| O=C(c1cccc(-c2cccc(-c3nc4cc(F)ccc4[nH]3)c2)c1)N1CCCCC1CN1CCC(O)C1 (configuration not stated) | 882 nM |
| O=C(Nc1ccc(-c2cccc(-c3nc4cc(F)ccc4[nH]3)c2)cc1)Nc1ccc(F)c(F)c1F | 739 nM |
| COc1cc(-c2[nH]c(-c3ccc(OCCN(C)C)cc3)cc2-c2ccncc2)ccc1Cl | 1790 nM |
| COc1ccc(OCCCN2CCCCC2)cc1S(=O)(=O)c1ccc(OCc2ccc(C(F)(F)F)cc2)cc1 | 1010 nM |
| CN1CCc2cc(Br)c(O)cc2C1Cc1ccccc1Cl (configuration not stated) | 667 nM |
| COc1cc(NC(=O)/C=C/c2cc(F)cc(F)c2F)cc(OCCN2CCN(CCN3CCOCC3)CC2)c1 | 771 nM |
| COc1ccc(C(=O)Nc2cc(Br)c3c(c2)CNCC3)cc1C(F)(F)F | 1070 nM |
| OC1(c2ccccc2)c2cc(Cl)ccc2OC1c1nc2c(Cl)ccc(Cl)c2o1 (configuration not stated) | 301 nM |
| O=C(Cc1ccccc1)NC(c1ccccc1)c1ccc2cccnc2c1O (configuration not stated) | 952 nM |

| SMILES | XC50 |
| --- | --- |
| Nc1nc(Cc2ccc(Cl)cc2)nc(Cc2ccc(Cl)cc2)n1 | 929 nM |
| Cc1ccc(Oc2ccccc2NC(=O)CCc2nc3ccccc3c(=O)[nH]2)cc1 | 827 nM |
| CN(Cc1c(Cl)cnn1C)S(=O)(=O)c1ccc2ccccc2c1 | 1040 nM |
| CCOc1ccc(OCC(=O)Nc2nc(-c3ccc(OC)cc3)c(C)s2)cc1 | 220 nM |
| COc1ccc(CNCc2ccc(-c3ccc(-c4nc5cccc(C)c5[nH]4)cc3)cc2)cc1 | 341 nM |
| OCCN1CCN(Cc2cccc(-c3ccc(-c4nc5cc(C(F)(F)F)ccc5[nH]4)cc3)c2)CC1 | 559 nM |
| C(=N\Nc1nccc2sc(-c3ccccc3)cc12)/c1cccnc1 | 821 nM |
| O=C(/C=C/c1ccc(Cl)c(Cl)c1)NCCCCN1CCCN(C(=O)Nc2cc(Cl)cc(Cl)c2)CC1 | 949 nM |
| Cc1cccc2nc(-c3ccc(-c4cccc(NC(=O)COc5ccccc5C(N)=O)c4)s3)[nH]c12 | 734 nM |
| Cc1cc(Cl)c(S(=O)(=O)N(C)c2ccccc2)cc1OCC(=O)NC1CCCCC1 | 296 nM |
| CC(C)(C)c1nn(-c2ccc(Cl)cc2)c2[nH]c(=O)c(CNC3CCCC3)cc12 | 234 nM |
| CCOc1ccc(C2CCN(CCCCNC(=O)c3ccc(NC(=O)c4ccc(Cl)cc4)cc3)CC2)c(OCC)c1 | 677 nM |
| CC(C)N1CCN(C(=O)c2ccc(CNCCCN3CCN(c4cccc(Cl)c4Cl)CC3)o2)CC1 | 737 nM |
| Cc1ccc2[nH]c3c(NCCCN4CCOCC4)ncnc3c2c1 | 942 nM |
| Oc1ccc(CCNc2nc(NCCOc3ccccc3-c3ccccc3)nc(N3CCNCC3)n2)cc1 | 1040 nM |
| CN1CCCN(Cc2ccc(-c3ccc(NC(=O)c4ccc(Cl)cc4)cc3)cc2)CC1 | 895 nM |
| O=C(/C=C/c1ccc(F)cc1)NC1CCC(CCN2CCc3ccc(-n4cccn4)cc3CC2)CC1 (configuration not stated) | 1440 nM |
| CC(Oc1cccc(Cl)c1)C(=O)N1CCc2ccccc21 (configuration not stated) | 512 nM |
| CC(C)C[C@H](NC(=O)c1cc2cc(OCCN3CCNCC3)ccc2o1)C(=O)NC1CC[C@@H](C)N(C(=O)Nc2ccc(Cl)cc2)CC1=O (some centres not stated) | 382 nM |
| Fc1ccc2[nH]c(-c3cccc(-c4cccc(CNCCc5ccncc5)c4)c3)nc2c1 | 170 nM |
| Cc1ccc(C)c(NC(=O)Nc2ccc(C)c(-c3ccc(C(=O)Nc4ccncc4)cc3)c2)c1 | 618 nM |
| Cc1cc(C)cc(-n2c(C)cc(/C=C3\SC(=Nc4ccc(Cl)cc4)NC3=O)c2C)c1 | 65.8 nM |
